Reference: patent US11815508B2, “Dynamic BH3 profiling” (Dana-Farber Cancer Institute, Inc., priority 2012, dated 2023)

Columns and labels:
Assay type in all cases: cell-based, human
PC9GR = experiment: Dynamic BH3 profiling, PC9 gefitinib resistant; settings: gefitinib 1 μM, WZ4002 100 nM, 16 hours; BH3 peptide Bim at low concentrations
Procedure: (§1) In various methods, sensitivity of a cell to an agent is determined. The methods include contacting a test cell with a test agent. Cell sensitivity to the test agent is determined by contacting the test cell or test cellular component (e.g., mitochondria) exposed to the test agent with standardized concentration of a panel of BH3 domain peptide from the pro-apoptotic BCL-2 family. […] The cell or cellular component is a cancer cell or a cell that is suspected of being cancerous. The cell is permeabilized to permit the BH3 peptides access to the mitochondria. Cells are permeabilized by methods known in the art. For example, the cell are permeabilized by contacting the cell with digitonin, or other art-recognized detergents and cell-permeabilization agents. After the cells are permeabilized the cells are treated with the BH3 peptides or test agents. After the cell is treated, mitochondrial outer membrane permeabilization is measured. Outer membrane permeabilization is measured by a number of methods. For example outer membrane permeabilization is measured by loss of mitochondrial membrane potential. Loss of mitochondrial membrane potential is measured for example by treating the cells with a potentiometric or radiometric dye. Three different cell lines were used: PC9, PC9 gefitinib resistant (PC9GR, including the mutation T790M) and PC9GR resistant to WZ4002 (PC9WZR). […]

PC9 = experiment: Dynamic BH3 profiling, NSCLC cell line PC9; settings: gefitinib 1 μM, WZ4002 100 nM, 16 hours; BH3 peptide Bim at low concentrations
Procedure: as §1

PC9WZR = experiment: Dynamic BH3 profiling, PC9GR resistant to WZ4002; settings: gefitinib 1 μM, WZ4002 100 nM, 16 hours; BH3 peptide Bim at low concentrations
Procedure: as §1

SuDHL4 cell line = experiment: miBH3 profile of the SuDHL4 cell line; settings: response to BH3 peptides
Procedure: FIGS. 14A-14B are a series of bar graphs showing the correlation of miBH3 profiles with known profiles.
Dynamic BH3 profiling can be accomplished at the single cell level by immobilizing cells on a solid surface. Optionally the solid surface is polyamine or poly-lysine coated. Immobilized cells are permeabilized as described above. The cells are then contacted with BH3 peptides and/or test agents. After the cells have been treated for a predetermined period of time such as 45-90 minutes, the cells are fixed and permeabilized by methods known in the art. For example the cells are fixed with formaldehyde and further permeabilized with methanol or triton x-100. Outer membrane permeabilization is determined intracellular staining for molecules from the mitochondrial inter-membrane space and a mitrochondrial marker. Examples of molecules that can be measured include cytochrome c and SMAC/Diablo, Omi, adenylate kinase-2 or apoptotic-inducing factor (AIF). Mitochondrial markers include MnSOD. Stained cells can be counterstained with nuclear stains such as DAPI. Optionally other intracellular and extracellular markers can be measured. Analysis of the cells can be manually accomplished using a microscope or automated for example by using software such as Cellprofiler to locate nuclei.
MicroBH3 (miBH3) is a BH3 profiling method where the measurement of the mitochondrial effect of BH3 peptides have on individual cells by microscopy. To accomplish this, cells are immobilized on polyamine or poly-lysine coated surfaces and treated with low concentrations of digitonin in a mitochondrial buffer to permeabilize the plasma membrane and grant access to the mitochondria without cell disruption. […] Fixed cells by this method can be readily stopped at the fixation step and can be analyzed weeks after acquisition as well as readily re-analyzed if needed.

Ku812 [1] = experiment: Cell death, Ku812 cells
Ku812 [2] = experiment: Dynamic BH3 profiling, Ku812 cells
Procedure: (§2) The change in depolarization caused by the BIM BH3 peptide following drug treatment is shown. […] Imatinib is a positive control.
(§3) In various methods, sensitivity of a cell to an agent is determined. The methods include contacting a test cell with a test agent. Cell sensitivity to the test agent is determined by contacting the test cell or test cellular component (e.g., mitochondria) exposed to the test agent with standardized concentration of a panel of BH3 domain peptide from the pro-apoptotic BCL-2 family.
(§4) The cell or cellular component is a cancer cell or a cell that is suspected of being cancerous. The cell is permeabilized to permit the BH3 peptides access to the mitochondria. Cells are permeabilized by methods known in the art. For example, the cell are permeabilized by contacting the cell with digitonin, or other art-recognized detergents and cell-permeabilization agents.
(§5) After the cells are permeabilized the cells are treated with the BH3 peptides or test agents. After the cell is treated, mitochondrial outer membrane permeabilization is measured. Outer membrane permeabilization is measured by a number of methods. For example outer membrane permeabilization is measured by loss of mitochondrial membrane potential. Loss of mitochondrial membrane potential is measured for example by treating the cells with a potentiometric or radiometric dye.

K562 [3] = experiment: Cell death by Annexin V/PI, K562 cells; settings: drug exposure 72 hours
K562 [4] = experiment: Dynamic BH3 profiling, K562 cells; settings: for change in depolarization caused by the BIM BH3 peptide following drug treatment: drug exposure 16 hours
Procedure: as §2, §3, §4, §5

Compound: C=CC(=O)Nc1cccc(Oc2nc(Nc3ccc(N4CCN(C)CC4)cc3OC)ncc2Cl)c1 [WZ4002]
- sensitivity (change in priming) by dynamic BH3 profiling (PC9GR): sensitive
- sensitivity (change in priming) by dynamic BH3 profiling (PC9): sensitive
- sensitivity (change in priming) by dynamic BH3 profiling (PC9WZR): insensitive

Compound: HQAEVQIARKLQLIADQFHR [BMF]
- release of cytochrome c and loss of correlation between cytochrome c and MnSOD channels (SuDHL4 cell line): Release of cytochrome c and loss of correlation

Compound: COc1cc2ncnc(Nc3ccc(F)c(Cl)c3)c2cc1OCCCN1CCOCC1 [gefitinib]
- sensitivity (change in priming) by dynamic BH3 profiling (PC9GR): insensitive
- sensitivity (change in priming) by dynamic BH3 profiling (PC9): sensitive
- sensitivity (change in priming) by dynamic BH3 profiling (PC9WZR): insensitive

Compound: LWAAQRYGRELRRMSDEFEGSFKGL [BAD]
- release of cytochrome c and loss of correlation between cytochrome c and MnSOD channels (SuDHL4 cell line): Release of cytochrome c and loss of correlation

Compound: Cc1sc2c(c1C)C(c1ccc(Cl)cc1)=N[C@@H](CC(=O)OC(C)(C)C)c1nnc(C)n1-2 [JQ1]
- cell death (Ku812 [1]): induce cell death
- priming by dynamic BH3 profiling (Ku812 [2]; epigenetic modifying agents, imatinib positive control): increases priming

Compound: COc1cc(N2CCC(N3CCN(C)CC3)CC2)ccc1Nc1ncc(Cl)c(Nc2ccccc2S(=O)(=O)C(C)C)n1 [TAE-684]
- cell death response (Annexin V/PI) (K562 [3]): unexpected killing
- change in depolarization caused by the BIM BH3 peptide following drug treatment (K562 [4]): significant changes

Compound: Cn1c(=O)n(-c2ccc(C(C)(C)C#N)cc2)c2c3cc(-c4cnc5ccccc5c4)ccc3ncc21 [BEZ235]
- cell death response (Annexin V/PI) (K562 [3]): unexpected killing
- change in depolarization caused by the BIM BH3 peptide following drug treatment (K562 [4]): significant changes

Compound: Cc1ccc(NC(=O)c2ccc(CN3CCN(C)CC3)cc2)cc1Nc1nccc(-c2cccnc2)n1 [imatinib]
- cell death (Ku812 [1]): induce cell death
- priming, several BH3 peptides (Ku812 [2]; imatinib 1 μM, 16 h and 8 h): increase in priming
- change in depolarization caused by the BIM BH3 peptide following drug treatment (K562 [4]): significant changes
- priming, several BH3 peptides (K562 [4]; imatinib 1 μM, 16 h and 8 h): increase in priming

Compound: EQWAREIGAQLRRMADDLNA [PUMA]
- release of cytochrome c and loss of correlation between cytochrome c and MnSOD channels (SuDHL4 cell line): Release of cytochrome c and loss of correlation
